Laboratory results as given in patent US7875618B2, “Substituted imidazo[1,5-a]quinoxalines useful as inhibitors of phosphodiesterase 10 for the treatment of neurological and other disorders” (Wyeth, priority 2007, dated 2011).

Each compound was assayed against PDE10 from pig striatum (Sus scrofa, UniProt A0A287B941) (assay: Inhibition of PDE10 from pig striatum ([3H]-cAMP SPA, Methods A and B)). Details: PDE10 pig.
Type: biochemical
Description: Striatum from male Wistar rats (180-200 g), male hybrid pigs (150 kg) and male guinea pigs (CRL (HA), 500 g) respectively were collected and frozen at −70° C. At the day of preparation 0.5 g striatum was homogenised in 10 ml 50 mM Tris/Mg-buffer at 4° C. and centrifuged for one hour at 100000 g. The supernatant is called the cytosolic fraction and was removed and stored on ice. The pellet was resuspended in the same buffer, but containing 1% Triton and incubated for 45 min at 4° C. Both fractions were independently applied onto a 5 ml Hi Trap™ QHP column at the Äkta-FPLC. After washing the columns the bound PDE protein was eluted with an increasing sodium chloride gradient (0 mM-500 mM sodium chloride) in 50 mM Tris/Mg-buffer at 4° C. for the cytosolic fraction and in the presence of 1% Triton for the membrane fraction. […] The fractions with PDE10-activity were pooled and frozen in aliquots until use at −20° C. PDE10 activity was determined in a one step procedure in microtiter plates. […] Nonspecific activity was tested without the enzyme. The reaction was initiated by addition of the substrate solution and was carried out at 37° C. for 30 minutes. Enzymatic activity was stopped by addition of 25 μl YSi-SPA-beads (Amersham-Pharmacia). One hour later the mixture was measured in a liquid scintillation counter for microtiter plates (Microbeta Trilux). To pipette the incubation mixture a robot Biomek (Fa. Beckman) is used. […] For determination of IC50 values the Hill-plot, 2-parameter-model, was used. […] Striatum from male hybrid pigs (150 kg) were collected and frozen at −70° C. At the day of preparation 0.5 g striatum was homogenised in 10 ml 50 mM Tris/Mg-buffer at 4° C. and centrifuged for one hour at 100000 g. The supernatant was removed and the pellet was resuspended in the same buffer, but containing 1% Triton and incubated for 45 min at 4° C. The membrane fraction was applied onto a 5 ml Hi Trap™ QHP column at the Äkta-FPLC. After washing the column the bound PDE protein was eluted with an increasing sodium chloride gradient (0 mM-500 mM sodium chloride) in 50 mM Tris/Mg-buffer at 4° C. in the presence of 1% Triton. […] The fractions with PDE10-activity were pooled and frozen in aliquots until use at −20° C. PDE10 activity was determined in a one step procedure in microtiterplates. […] Nonspecific activity was tested without the enzyme. The reaction was initiated by addition of the substrate solution and was carried out at 37° C. for 30 minutes. Enzymatic activity was stopped by addition of 25 μl YSi-SPA-beads (Amersham-Pharmacia). One hour later the mixture was measured in a liquid scintillation counter for microtiterplates (Microbeta Trilux). To pipette the incubation mixture a robot Biomek (Fa. Beckman) is used. […] For determination of IC50 values the Hill-plot, 2-parameter-model, was used.

“7-Methoxy-3-methyl-1-propyl-imidazo[1,5-a]quinoxalin-4-ylamine [Example 41]” and CCc1nc(C)c2c(N)nc3ccc(N4CCCCC4)cc3n12 [Example 1, 1-Ethyl-3-methyl-8-piperidin-1-yl-imidazo(1,5-a)quinoxalin-4-ylamine] cannot be ordered by IC50: 10 to 100 nM for the first, no less than 100 nM for the second.

Cc1nc(C2CCCCC2)n2c1c(N)nc1ccc(F)cc12 [Example 2, 1-Cyclohexyl-8-fluoro-3-methyl-imidazo(1,5-a)quinoxalin-4-yl-amine] and Cc1nc(-c2ccccc2Cl)n2c1c(N)nc1ccc(F)cc12 [Example 8, 1-(2-Chlorphenyl)-8-fluoro-3-methyl-imidazo(1,5-a)quinoxalin-4-ylamine] cannot be ordered by IC50: 10 to 100 nM for the first, no more than 10 nM for the second.

CCCc1nc(C)c2c(C)nc3ccccc3n12 [Example 9, 3,4-Dimethyl-1-propyl-imidazo(1,5-a)quinoxaline] and Cc1nc(-c2ccccc2Cl)n2c1c(C)nc1ccc(F)cc12 [Example 15, 1-(2-Chlorphenyl)-3,4-dimethyl-8-fluoro-imidazo(1,5-a)quinoxaline] cannot be ordered by IC50: 10 to 100 nM for the first, no more than 10 nM for the second.

CCCc1nc(C)c2c(OC)nc3ccc(F)cc3n12 [Example 18, 8-Fluoro-4-methoxy-3-methyl-1-propyl-imidazo(1,5-a)quin-oxaline] and Cc1nc(-c2cc(Cl)ccc2Cl)n2c1c(C)nc1ccc(F)cc12 [Example 19, 1-(2,5-Dichlorophenyl)-8-fluoro-3,4-dimethylimidazo[1,5-a]quinoxaline] fall in the same range of IC50: 10 to 100 nM for the first, 10 to 100 nM for the second.

Cc1nc(-c2cc(Cl)cc(Cl)c2)n2c1c(C)nc1ccc(F)cc12 [Example 20, 1-(3,5-Dichlorophenyl)-8-fluoro-3,4-dimethylimidazo[1,5-a]quinoxaline] and Cc1nc(-c2cccc(Cl)c2)n2c1c(C)nc1ccc(F)cc12 [Example 21, 1-(3-Chlorophenyl)-8-fluoro-3,4-dimethylimidazo[1,5-a]quinoxaline] fall in the same range of IC50: 10 to 100 nM for the first, 10 to 100 nM for the second.

Cc1nc(-c2ccc(F)cc2F)n2c1c(C)nc1ccc(F)cc12 [Example 22, 1-(2,4-Difluorophenyl)-8-fluoro-3,4-dimethylimidazo[1,5-a]quinoxaline] and COc1ccccc1-c1nc(C)c2c(C)nc3ccc(F)cc3n12 [Example 23, 8-Fluoro-1-(2-methoxyphenyl)-3,4-dimethylimidazo[1,5-a]quinoxaline] fall in the same range of IC50: 10 to 100 nM for the first, 10 to 100 nM for the second.

COc1cccc(-c2nc(C)c3c(C)nc4ccc(F)cc4n23)c1 [Example 24, 8-Fluoro-1-(3-methoxyphenyl)-3,4-dimethylimidazo[1,5-a]quinoxaline] and Cc1ccccc1-c1nc(C)c2c(C)nc3ccc(F)cc3n12 [Example 25, 8-Fluoro-3,4-dimethyl-1-(2-methylphenyl)imidazo[1,5-a]quinoxaline] cannot be ordered by IC50: no more than 10 nM for the first, no more than 10 nM for the second.

Cc1cccc(-c2nc(C)c3c(C)nc4ccc(F)cc4n23)c1 [Example 26, 8-Fluoro-3,4-dimethyl-1-(3-methylphenyl)imidazo[1,5-a]quinoxaline] and Cc1nc(-c2ccccc2C(F)(F)F)n2c1c(C)nc1ccc(F)cc12 [Example 27, 8-Fluoro-3,4-dimethyl-1-[2-(trifluoromethyl)phenyl]imidazo[1,5-a]quinoxaline] fall in the same range of IC50: 10 to 100 nM for the first, 10 to 100 nM for the second.

Cc1nc(-c2ccccc2OC(F)(F)F)n2c1c(C)nc1ccc(F)cc12 [Example 28, 8-Fluoro-3,4-dimethyl-1-[2-(trifluoromethoxy)phenyl]imidazo[1,5-a]quinoxaline] and Cc1ccsc1-c1nc(C)c2c(C)nc3ccc(F)cc3n12 [Example 29, 8-Fluoro-3,4-dimethyl-1-(3-methyl-2-thienyl)imidazo[1,5-a]quinoxaline] fall in the same range of IC50: 10 to 100 nM for the first, 10 to 100 nM for the second.

First: Cc1noc(C)c1-c1nc(C)c2c(C)nc3ccc(F)cc3n12 [Example 30, 1-(3,5-Dimethylisoxazol-4-yl)-8-fluoro-3,4-dimethylimidazo[1,5-a]quinoxaline]
Second: Cc1ccccc1-c1nc(C)c2c(C)nc3c(O)cc(O)cc3n12 [Example 54, 6,8-Dihydroxy-3,4-dimethyl-1-(2-methylphenyl)-imidazo[1,5-a]quinoxaline]
The IC50 of the first is higher: no less than 100 nM for the first, no more than 10 nM for the second.

Cc1nc(-c2ccccc2Cl)n2c1c(C)nc1cc(O)ccc12 [Example 55, 1-(2-Chlorophenyl)-3,4-dimethyl-7-hydroxy-imidazo(1,5-a)quinoxaline] and Cc1ccccc1-c1nc(C)c2c(C)nc3c(OC(F)F)cc(OC(F)F)cc3n12 [Example 56, 6,8-Bis-difluoromethoxy-3,4-dimethyl-1-(2-methylphenyl)-imidazo(1,5-a)quinoxaline] cannot be ordered by IC50: 10 to 100 nM for the first, no more than 10 nM for the second.

COc1cc(F)cc2c1nc(C)c1c(C)nc(-c3ccc(F)c(C(N)=O)c3)n12 [Example 86, 2-fluoro-5-(8-fluoro-6-methoxy-3,4-dimethylimidazo[1,5-a]quinoxalin-1-yl)benzamide] and CCc1nc(C)c2c(Cl)nc3ccc(N4CCCCC4)cc3n12 [Intermediate B2, 4-Chloro-1-ethyl-3-methyl-8-piperidin-1-yl-imidazo(1,5-a)quinoxaline] cannot be ordered by IC50: no more than 10 nM for the first, 10 to 100 nM for the second.

Cc1nc(-c2ccccc2Cl)n2c1c(Cl)nc1ccc(F)cc12 [Intermediate B8] was tested, and the IC50 was no more than 10 nM.

What follows are compounds tested against T1, human recombinant PDE10A (Homo sapiens, UniProt Q9Y233) (assay: Inhibition of human recombinant PDE10A ([3H]-cAMP SPA, Method B)). Details: read-out: PDE10 inhibition IC50 [nM] PDE10A human.
T1 construct: made in house; host or cells: SF21 insect cells (baculovirus)
T1 sequence (Q9Y233 1-779 isoform Q9Y233-1): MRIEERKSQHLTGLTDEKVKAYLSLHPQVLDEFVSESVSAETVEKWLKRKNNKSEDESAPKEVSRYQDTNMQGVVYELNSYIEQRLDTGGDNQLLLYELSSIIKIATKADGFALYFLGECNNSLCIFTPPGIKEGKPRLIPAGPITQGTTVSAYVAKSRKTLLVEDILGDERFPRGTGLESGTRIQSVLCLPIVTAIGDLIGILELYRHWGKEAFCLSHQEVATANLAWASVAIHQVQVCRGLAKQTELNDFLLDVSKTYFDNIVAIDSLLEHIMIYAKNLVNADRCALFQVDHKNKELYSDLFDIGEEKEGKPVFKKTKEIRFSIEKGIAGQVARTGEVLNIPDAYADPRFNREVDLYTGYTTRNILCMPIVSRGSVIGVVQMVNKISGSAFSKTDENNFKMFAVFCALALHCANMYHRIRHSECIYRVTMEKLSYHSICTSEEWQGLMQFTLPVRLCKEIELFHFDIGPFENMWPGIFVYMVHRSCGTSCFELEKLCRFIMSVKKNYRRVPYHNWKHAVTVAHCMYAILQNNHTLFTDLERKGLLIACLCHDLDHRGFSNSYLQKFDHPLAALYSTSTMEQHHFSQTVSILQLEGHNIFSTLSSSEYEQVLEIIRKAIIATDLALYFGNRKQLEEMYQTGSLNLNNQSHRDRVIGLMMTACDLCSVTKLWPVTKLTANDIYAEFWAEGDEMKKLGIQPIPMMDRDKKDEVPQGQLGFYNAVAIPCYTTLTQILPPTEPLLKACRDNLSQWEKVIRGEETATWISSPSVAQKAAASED
Type: biochemical
Description: The gene was than inserted into a baculovirus vector, ligated with the baculovirus DNA. The enzyme-protein was expressed in SF21-cells. The enzyme was isolated from these cells by harvesting the cells by a centrifugation at 200 g to collect the cells. The cells were resuspended in 50 mM Tris-HCl/5 mM MgCl2 buffer (pH=7.4) and lysed by a sonication of the cells. The cytosolic PDE10A was obtained by a centrifugation at 48000 g for 1 h in the supernatant and stored at −70° C. PDE10 activity was determined in a one step procedure in microtiterplates. […] Nonspecific activity was tested without the enzyme. The reaction was initiated by addition of the substrate solution and was carried out at 37° C. for 30 minutes. Enzymatic activity was stopped by addition of 25 μl YSi-SPA-beads (Amersham-Pharmacia). One hour later the mixture was measured in a liquid scintillation counter for microtiterplates (Microbeta Trilux). To pipette the incubation mixture a robot Biomek (Fa. Beckman) is used. […] For determination of IC50 values the Hill-plot, 2-parameter-model, was used.

“7-Methoxy-3-methyl-1-propyl-imidazo[1,5-a]quinoxalin-4-ylamine [Example 41]” and Cc1nc(-c2ccccc2Cl)n2c1c(C)nc1ccc(F)cc12 [Example 15, 1-(2-Chlorphenyl)-3,4-dimethyl-8-fluoro-imidazo(1,5-a)quinoxaline] fall in the same range of IC50: 10 to 100 nM for the first, 10 to 100 nM for the second.

Cc1nc(-c2ccccc2OC(F)(F)F)n2c1c(C)nc1ccc(F)cc12 [Example 28, 8-Fluoro-3,4-dimethyl-1-[2-(trifluoromethoxy)phenyl]imidazo[1,5-a]quinoxaline] and Cc1ccsc1-c1nc(C)c2c(C)nc3ccc(F)cc3n12 [Example 29, 8-Fluoro-3,4-dimethyl-1-(3-methyl-2-thienyl)imidazo[1,5-a]quinoxaline] cannot be ordered by IC50: no less than 100 nM for the first, 10 to 100 nM for the second.

Cc1ccccc1-c1nc(C)c2c(C)nc3c(O)cc(O)cc3n12 [Example 54, 6,8-Dihydroxy-3,4-dimethyl-1-(2-methylphenyl)-imidazo[1,5-a]quinoxaline] and Cc1nc(-c2ccccc2Cl)n2c1c(C)nc1cc(O)ccc12 [Example 55, 1-(2-Chlorophenyl)-3,4-dimethyl-7-hydroxy-imidazo(1,5-a)quinoxaline] fall in the same range of IC50: 10 to 100 nM for the first, 10 to 100 nM for the second.

Cc1ccccc1-c1nc(C)c2c(C)nc3c(OC(F)F)cc(OC(F)F)cc3n12 [Example 56, 6,8-Bis-difluoromethoxy-3,4-dimethyl-1-(2-methylphenyl)-imidazo(1,5-a)quinoxaline] and COc1cccc2c1nc(C)c1c(C)nc(-c3ccccc3C)n12 [Example 133, 6-Methoxy-3,4-dimethyl-1-(2-methylphenyl)imidazo[1,5-a]quinoxaline] cannot be ordered by IC50: no more than 10 nM for the first, no more than 10 nM for the second.

Cc1ccc(C(N)=O)cc1-c1nc(C)c2c(C)nc3ccc(F)cc3n12 [Example 134, 3-(8-fluoro-3,4-dimethylimidazo[1,5-a]quinoxalin-1-yl)-4-methylbenzamide] and Cc1nc(-c2ccc(F)c(C(N)=O)c2)n2c1c(C)nc1ccc(F)cc12 [Example 135, 2-fluoro-5-(8-fluoro-3,4-dimethylimidazo[1,5-a]quinoxalin-1-yl)benzamide] fall in the same range of IC50: 10 to 100 nM for the first, 10 to 100 nM for the second.

Cc1nc(-c2cc(F)cc(C(N)=O)c2)n2c1c(C)nc1ccc(F)cc12 [Example 136, 3-fluoro-5-(8-fluoro-3,4-dimethylimidazo[1,5-a]quinoxalin-1-yl)benzamide] and Cc1nc(-c2cc(C(N)=O)ccc2F)n2c1c(C)nc1ccc(F)cc12 [Example 137, 4-fluoro-3-(8-fluoro-3,4-dimethylimidazo[1,5-a]quinoxalin-1-yl)benzamide] fall in the same range of IC50: 10 to 100 nM for the first, 10 to 100 nM for the second.

Cc1nc(F)ccc1-c1nc(C)c2c(C)nc3ccc(F)cc3n12 [Example 139, 8-fluoro-1-(6-fluoro-2-methylpyridin-3-yl)-3,4-dimethylimidazo[1,5-a]quinoxaline] and COc1ccncc1-c1nc(C)c2c(C)nc3ccc(F)cc3n12 [Example 140, 8-fluoro-1-(4-methoxypyridin-3-yl)-3,4-dimethylimidazo[1,5-a]quinoxaline] cannot be ordered by IC50: no less than 100 nM for the first, no less than 100 nM for the second.

Cc1nc(-c2ccncc2)n2c1c(C)nc1ccc(F)cc12 [Example 143, 8-fluoro-3,4-dimethyl-1-pyridin-4-ylimidazo[1,5-a]quinoxaline] and Cc1nc(-c2cccnc2)n2c1c(C)nc1ccc(F)cc12 [Example 144, 8-fluoro-3,4-dimethyl-1-pyridin-3-ylimidazo[1,5-a]quinoxaline] cannot be ordered by IC50: no less than 100 nM for the first, no less than 100 nM for the second.

With CCCc1nc(C)c2c(Cl)nc3ccc(OC)cc3n12 [Intermediate B1, 4-chloro-8-methoxy-3-methyl-1-propyl-imidazo[1,5-a]quinazoline] the IC50 was 10 to 100 nM.
